The target in the assay is endothelial lipase (EL) (Homo sapiens (Human), UniProt Q9Y5X9). Put plainly: Endothelial lipase (EL) enzymatic assay with fluorescent substrate A10070 in DMPG vesicles. To be noted: conditioned media from HT-1080 cells overexpressing endogenous EL; 20 min preincubation at 37° C.; read-out: HLE_EL_CRC IC50. In kind it is biochemical. The procedure: Endothelial lipase activity was measured using a fluorescent substrate, A10070, (Invitrogen, CA) doped into an artificial vesicle containing DMPG (Avanti Polar Lipids) as the excipient. Vesicles were prepared by combining 285 uL of 1 mM
DMPG in a 1:1 mixture of MeOH and CHCl3 with 15 uL of 1 mM A10070 in a 1:1 mixture of MeOH and CHCl3. The mixture was dried under nitrogen and resuspended in 150 uL of 50 mM HEPES pH 8.0 buffer containing 100 mM NaCl and 0.2 mM EDTA. The sample was allowed to sit at rt for 15 min and then was sonicated 3×4 mins on ice with a Branson Sonicator using duty cycle 1. This preparation provides vesicles with a mole fraction of 0.05 for the FRET substrate.
The enzymatic assay was measured using white, opaque 96-well half area plates. Each well contained 60 uL of assay buffer (50 mM HEPES pH 8.0, 50 mM NaCl and 1 mM CaCl2) and 2 ul of a DMSO solution containing compound of interest. Conditioned media obtained from HT-1080 cells, which were transformed by RAGE technology (Athersys) to overexpress endogenous EL, was added and the reaction was allowed to incubate for 20 min at 37° C. with gentle agitation. The reaction was started by the addition of 20 uL of a 1:4 dilution of vesicles. The final total reaction volume was 100 uL. The reaction rates were measured on a Gemini plate reader with an excitation wavelength of 488 nm and a emission of 530 nm. Readings were taken every 20 seconds for 10 min with agitation between each reading. The slope of the linear portion of the readout was used to calculate the rate of the reaction.
The exemplified examples disclosed in the present invention were tested in the EL assay described above and found having EL inhibitory activity.

We go through 29 compounds from patent US9493412B2, “Pyrrolinone carboxamide compounds useful as endothelial lipase inhibitors” (BRISTOL-MYERS SQUIBB COMPANY, priority 2011, dated 2016).

Each structure is given as a SMILES string. pIC50: −log10 of the molar value.

One may read the pIC50 as −log10 of the IC50, conventionally taken in molar units.

Chain of endothelial lipase (EL) (Q9Y5X9 21-500): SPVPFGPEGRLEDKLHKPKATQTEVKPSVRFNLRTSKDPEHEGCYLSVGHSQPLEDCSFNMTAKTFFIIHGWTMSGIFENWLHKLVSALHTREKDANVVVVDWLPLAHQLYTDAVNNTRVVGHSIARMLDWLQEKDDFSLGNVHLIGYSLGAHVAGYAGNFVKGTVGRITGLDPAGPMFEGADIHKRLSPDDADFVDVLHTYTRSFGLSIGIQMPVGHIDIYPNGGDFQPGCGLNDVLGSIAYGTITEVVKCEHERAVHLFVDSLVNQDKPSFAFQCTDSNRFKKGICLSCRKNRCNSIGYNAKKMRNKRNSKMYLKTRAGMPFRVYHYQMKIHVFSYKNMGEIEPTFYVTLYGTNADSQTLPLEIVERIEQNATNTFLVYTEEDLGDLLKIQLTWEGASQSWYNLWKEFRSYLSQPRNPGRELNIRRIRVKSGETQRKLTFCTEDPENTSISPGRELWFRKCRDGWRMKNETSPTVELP

`CC(=O)c1cccc(-c2cccc(CNC(=O)C3=C(O)C(=O)N(C)C3)c2)c1` [Example 66, N-((3′-acetylbiphenyl-3-yl)methyl)-4-hydroxy-1-methyl-5-oxo-2,5-dihydro-1H-pyrrole-3-carboxamide]: the negative-log IC50 (pIC50) is 6.55. As to `CN1CC(C(=O)NCc2cccc(-c3ccccc3F)c2)=C(O)C1=O` [Example 63, N-((2′-fluorobiphenyl-3-yl)methyl)-4-hydroxy-1-methyl-5-oxo-2,5-dihydro-1H-pyrrole-3-carboxamide], the pIC50 was 6.60. As for `Cc1ccc(Oc2ccc(CNC(=O)C3=C(O)C(=O)N(C)C3)cc2)c(C)c1` [Example 34, N-(4-(2,4-dimethylphenoxy)benzyl)-4-hydroxy-1-methyl-5-oxo-2,5-dihydro-1H-pyrrole-3-carboxamide], the pIC50 was 7.49. As for `O=C(N[C@H]1CC[C@@H](c2ccccc2)CC1)C1=C(O)C(=O)N(C2CCN(c3ccc(F)cc3)CC2)C1` [Example 179, 1-(1-(4-fluorophenyl)piperidin-4-yl)-4-hydroxy-5-oxo-N-(cis-4-phenylcyclohexyl)-2,5-dihydro-1H-pyrrole-3-carboxamide], the pIC50 was 5.51.

Regarding `CN1CC(C(=O)NC2CC[C@H](c3ccccc3)C2)=C(O)C1=O` (single isomer, unassigned; isomer a) [Example 173], the pIC50 is 5.07. For `CC(=O)NCc1ccc(-c2cccc([C@@H](C)NC(=O)C3=C(O)C(=O)N(C)C3)c2)cc1` [Example 104, (R)-N-(1-(4′-(acetamidomethyl)biphenyl-3-yl)ethyl)-4-hydroxy-1-methyl-5-oxo-2,5-dihydro-1H-pyrrole-3-carboxamide] the value was 6.60; for `CCN1CC(C(=O)N[C@@H]2CCC(c3ccccc3)c3ccccc32)=C(O)C1=O` (stereo partly drawn) [Example 146, 1-ethyl-4-hydroxy-5-oxo-N-((1R)-4-phenyl-1,2,3,4-tetrahydronaphthalen-1-yl)-2,5-dihydro-1H-pyrrole-3-carboxamide], 7.30; for `CN(CCN1CC(C(=O)N[C@H]2CC[C@@H](c3ccccc3)CC2)=C(O)C1=O)C(=O)/C=C/C(F)(F)F` [Example 178, 4-hydroxy-5-oxo-N-(cis-4-phenylcyclohexyl)-1-(2-((E)-4,4,4-trifluoro-N-methylbut-2-enamido)ethyl)-2,5-dihydro-1H-pyrrole-3-carboxamide], 5.00.

As for `C[C@@H](NC(=O)C1=C(O)C(=O)N(C)C1)c1cccc(-c2cccc(C(F)(F)F)c2)c1` [Example 91, (R)-4-hydroxy-1-methyl-5-oxo-N-(1-(3′-(trifluoromethyl)biphenyl-3-yl)ethyl)-2,5-dihydro-1H-pyrrole-3-carboxamide], the pIC50 is 6.57. For `CN1CC(C(=O)NCc2cccc(-c3ccc(CNS(C)(=O)=O)cc3)c2)=C(O)C1=O` [Example 83, 4-hydroxy-1-methyl-N-((4′-(methylsulfonamidomethyl)biphenyl-3-yl)methyl)-5-oxo-2,5-dihydro-1H-pyrrole-3-carboxamide] the value was 6.59.

Take `CN1CC(C(=O)NCc2ccc(Oc3ccc(F)cc3)cc2)=C(O)C1=O` [Example 8, N-(4-(4-fluorophenoxy)benzyl)-4-hydroxy-1-methyl-5-oxo-2,5-dihydro-1H-pyrrole-3-carboxamide]: the pIC50 is 7.31.

For `CN1CC(N2CC(C(=O)N[C@H]3CC[C@@H](c4ccccc4)CC3)=C(O)C2=O)CC1=O` (stereo partly drawn) [Example 196, 4-hydroxy-1-(1-methyl-5-oxopyrrolidin-3-yl)-5-oxo-N-(cis-4-phenylcyclohexyl)-2,5-dihydro-1H-pyrrole-3-carboxamide], the pIC50 was 5.08. For `C[C@@H](NC(=O)C1=C(O)C(=O)N(C)C1)c1cccc(-c2cccc(C(N)=O)c2)c1` [Example 103, (R)-N-(1-(3′-carbamoylbiphenyl-3-yl)ethyl)-4-hydroxy-1-methyl-5-oxo-2,5-dihydro-1H-pyrrole-3-carboxamide], the pIC50 was 7.30.

As for `CC(C)CN1CC(C(=O)NCCCCc2nc(-c3ccc(Cl)c(Cl)c3)no2)=C(O)C1=O` [Example 21, N-(4-(3-(3,4-dichlorophenyl)-1,2,4-oxadiazol-5-yl)butyl)-4-hydroxy-1-isobutyl-5-oxo-2,5-dihydro-1H-pyrrole-3-carboxamide], the pIC50 is 7.81. As to `CN1CC(C(=O)NCc2ccccc2-c2ccccc2)=C(O)C1=O` [Example 18, N-(biphenyl-2-ylmethyl)-4-hydroxy-1-methyl-5-oxo-2,5-dihydro-1H-pyrrole-3-carboxamide], the pIC50 is 7.57. Then `O=C(N[C@H]1CC[C@@H](c2ccccc2)CC1)C1=C(O)C(=O)N(CC(F)(F)C(F)(F)F)C1` [Example 169, 4-hydroxy-5-oxo-1-(2,2,3,3,3-pentafluoropropyl)-N-(cis-4-phenylcyclohexyl)-2,5-dihydro-1H-pyrrole-3-carboxamide], with 5.14. Then `CN1CC(C(=O)NCc2ccc(OC3CCOCC3)cc2)=C(O)C1=O` [Example 22, 4-hydroxy-1-methyl-5-oxo-N-(4-(tetrahydro-2H-pyran-4-yloxy)benzyl)-2,5-dihydro-1H-pyrrole-3-carboxamide], with 6.57. Regarding `CN1CC(C(=O)NCc2cccc(-c3ccccc3Cl)c2)=C(O)C1=O` [Example 62, N-((2′-chlorobiphenyl-3-yl)methyl)-4-hydroxy-1-methyl-5-oxo-2,5-dihydro-1H-pyrrole-3-carboxamide], the pIC50 is 6.61. Regarding `C[C@@H](NC(=O)C1=C(O)C(=O)N(C)C1)c1cccc(-c2cccc(F)c2)c1` [Example 92, (R)-N-(1-(3′-fluorobiphenyl-3-yl)ethyl)-4-hydroxy-1-methyl-5-oxo-2,5-dihydro-1H-pyrrole-3-carboxamide], the pIC50 is 6.61. For `CC(=O)NCc1ccc(-c2cccc(CNC(=O)C3=C(O)C(=O)N(C)C3)c2)cc1` [Example 85, N-((4′-(acetamidomethyl)biphenyl-3-yl)methyl)-4-hydroxy-1-methyl-5-oxo-2,5-dihydro-1H-pyrrole-3-carboxamide], the pIC50 was 6.62. For `CCN1CC(C(=O)NCC2CCc3cnc(-c4ccc(Cl)c(Cl)c4)n3C2)=C(O)C1=O` (centres unmarked) [Example 214, N-((3-(3,4-Dichlorophenyl)-5,6,7,8-tetrahydroimidazo[1,5-a]pyridin-6-yl)methyl)-1-ethyl-4-hydroxy-5-oxo-2,5-dihydro-1H-pyrrole-3-carboxamide] the value was 6.34.

Consider `O=C(N[C@H]1CC[C@@H](c2ccccc2)CC1)C1=C(O)C(=O)N(CCS(=O)(=O)c2ccccc2)C1` [Example 172, 4-hydroxy-5-oxo-N-(cis-4-phenylcyclohexyl)-1-(2-(phenylsulfonyl)ethyl)-2,5-dihydro-1H-pyrrole-3-carboxamide], for which the pIC50 is 5.33. Then `CCN1CC(C(=O)N[C@@H]2CCc3cc(-c4ccccc4)ccc32)=C(O)C1=O` [Example 218, (R)-1-ethyl-4-hydroxy-5-oxo-N-(5-phenyl-2,3-dihydro-1H-inden-1-yl)-2,5-dihydro-1H-pyrrole-3-carboxamide], with 7.36; and `CN1CC(C(=O)NCc2ccc(C(=O)N3CCCCC3)cc2)=C(O)C1=O` [Example 24, 4-hydroxy-1-methyl-5-oxo-N-(4-(piperidine-1-carbonyl)benzyl)-2,5-dihydro-1H-pyrrole-3-carboxamide], with 5.03. For `CN(CCN1CC(C(=O)N[C@H]2CC[C@@H](c3ccccc3)CC2)=C(O)C1=O)c1ccccc1` [Example 210, 4-hydroxy-1-(2-(methyl(phenyl)amino)ethyl)-5-oxo-N-(cis-4-phenylcyclohexyl)-2,5-dihydro-1H-pyrrole-3-carboxamide] the value was 5.18. For `CNCCCN1CC(C(=O)N[C@H]2CC[C@@H](c3ccccc3)CC2)=C(O)C1=O` [Example 181, 4-hydroxy-1-(3-(methylamino)propyl)-5-oxo-N-(cis-4-phenylcyclohexyl)-2,5-dihydro-1H-pyrrole-3-carboxamide] the value was 5.24; for `C[C@@H](NC(=O)C1=C(O)C(=O)N(C)C1)c1cccc(-c2cccc(C#N)c2)c1` [Example 96, (R)-N-(1-(3′-cyanobiphenyl-3-yl)ethyl)-4-hydroxy-1-methyl-5-oxo-2,5-dihydro-1H-pyrrole-3-carboxamide], 6.56; for `O=C(N[C@H]1CC[C@@H](c2ccccc2)CC1)C1=C(O)C(=O)N(CCCC(F)(F)F)C1` [Example 168, 4-hydroxy-5-oxo-N-(cis-4-phenylcyclohexyl)-1-(4,4,4-trifluorobutyl)-2,5-dihydro-1H-pyrrole-3-carboxamide], 6.60. For the compound `CN1CC(C(=O)NCC2CCN(C(=O)c3ccc(Cl)c(Cl)c3)CC2)=C(O)C1=O` [Example 157, N-((1-(3,4-dichlorobenzoyl)piperidin-4-yl)methyl)-4-hydroxy-1-methyl-5-oxo-2,5-dihydro-1H-pyrrole-3-carboxamide], the pIC50 is 5.31.
